Data reported in patent US20170247693A1 (priority 2016, published 2017).

System: HepG2 cells
Conditions: normoxia

COc1cccc2c1C(=O)c1c(O)c3c(c(O)c1C2=O)C[C@@](O)(C(=O)CO)C[C@@H]3O[C@H]1C[C@H](N)[C@H](O)[C@H](C)O1 [DOX, Doxorubicin]
minimal concentration that diminished the growth of the treated cells (HepG2): 1 μm | decrease of cell viability (HepG2 infected with vACE-NT, 72 h after administering DOX (1 μm)): 27%
